Experimental data from ChEMBL document CHEMBL4325853, “Design, synthesis and antibacterial evaluation of 2,4-disubstituted-6-thiophenyl-pyrimidines” (Eur J Med Chem, 2019).
Active and inactive are the calls of the source. The rule behind the calls is not given here.

Tests used:
[1] = molecular target: T1, Cell division protein FtsZ (Staphylococcus aureus) (UniProt P0A031); assay: Inhibition of recombinant Staphylococcus aureus FtsZ polymerization assessed as reduction in size of protein polymers at 4 ug/ml preincubated for 10 mins followed by GTP addition and measured after 15 mins by transmission electron microscopic method
T1 sequence (whole entry): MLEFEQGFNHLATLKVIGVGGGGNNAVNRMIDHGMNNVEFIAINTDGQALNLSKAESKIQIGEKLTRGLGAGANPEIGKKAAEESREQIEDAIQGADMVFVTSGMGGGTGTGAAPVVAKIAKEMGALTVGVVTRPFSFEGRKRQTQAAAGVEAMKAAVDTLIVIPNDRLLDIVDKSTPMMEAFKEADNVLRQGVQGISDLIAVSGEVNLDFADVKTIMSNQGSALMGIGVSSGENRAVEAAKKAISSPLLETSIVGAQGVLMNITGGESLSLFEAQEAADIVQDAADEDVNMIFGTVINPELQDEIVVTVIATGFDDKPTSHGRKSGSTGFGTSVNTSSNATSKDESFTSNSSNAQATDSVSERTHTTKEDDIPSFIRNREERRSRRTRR

[2] = molecular target: T1, Cell division protein FtsZ (Staphylococcus aureus); assay: Inhibition of recombinant Staphylococcus aureus FtsZ GTPase activity assessed as reduction in inorganic phosphate formation at 2 ug/ml after 30 mins by colorimetric method relative to control
[3] = molecular target: T1, Cell division protein FtsZ (Staphylococcus aureus); assay: Inhibition of recombinant Staphylococcus aureus FtsZ polymerization assessed as reduction in bundling of protein protofilaments at 4 ug/ml preincubated for 10 mins followed by GTP addition and measured after 15 mins by transmission electron microscopic method
[4] = molecular target: T1, Cell division protein FtsZ (Staphylococcus aureus); assay: Inhibition of recombinant Staphylococcus aureus FtsZ GTPase activity assessed as reduction in inorganic phosphate formation at 16 ug/ml after 30 mins by colorimetric method relative to control
[5] = molecular target: T1, Cell division protein FtsZ (Staphylococcus aureus); assay: Inhibition of recombinant Staphylococcus aureus FtsZ polymerization by 90 degree light scattering-based fluorescence spectrometric analysis
Bacillus subtilis = assay: Induction of morphological changes in Bacillus subtilis 168 assessed as cell length at 2 ug/ml after 4.5 hrs by phase contrast microscopic analysis (reference value: 5 to 10 micrometer); assay type: functional, subsp. subtilis str. 168
Staphylococcus aureus [6] = assay: Ratio of MIC for Staphylococcus aureus ATCC 29213 after and before 5 serial passages; assay type: functional
Staphylococcus aureus [7] = assay: Ratio of MIC for Staphylococcus aureus ATCC 29213 after and before 5 to 21 serial passages; assay type: functional

Compound | inhibition [1] | inhibition [2] [%] | inhibition [3] | inhibition [4] [%] | inhibition [5] | Activity (Bacillus subtilis) [um] | Ratio (Staphylococcus aureus [6]) | Ratio (Staphylococcus aureus [7])
CC(C)c1ccc(CN2CCCN(CCc3cc(-c4cccs4)nc(-c4ccncc4)n3)CC2)cc1 | Active | 25 | Active | 70 | Dose-dependent effect | >20 | – | –
COc1cccc(OC)c1C(=O)N[C@@H]1C(=O)N2[C@@H]1SC(C)(C)[C@@H]2C(=O)O [METHICILLIN] | – | – | – | – | – | – | 4 | 32
